Values after ≈ are worked out from the molar mass of the structure shown. Values joined by “and” are separate entries in the source; they are usually repeats but may differ in a detail not shown here. Equal entries are not always repeated. Residues, ends and D or L forms follow the SMILES beside them.
Columns and labels:
[1] = test system: P. aeruginosa ATCC 27853; assay: Neutropenic mouse bloodstream infection model; type: in vivo; settings: single IV dose 4 mg/kg; for Log10 CFU/mL blood at 4 h, Mean / Δlog10 CFU/mL blood (mean) / Log10 CFU/mL blood at 4 h, single mouse: 4 h; for Δlog10 CFU/mL blood (mean): treated minus control, mean of replicates; for Δlog10 CFU/mL blood (mean) / Log10 CFU/mL blood at 4 h, single mouse / Delta Log10 CFU/mL blood at 4 h, single mouse: 4 mg/kg; for Delta Log10 CFU/mL blood at 4 h, single mouse: treated mouse minus mean of vehicle mice
Experimental: The experimental methodology for the neutropenic mouse bloodstream infection model was described previously. Briefly, 7-week-old female Swiss mice (22–28 g) were rendered neutropenic by intraperitoneal administration of cyclophosphamide, 4 days (150 mg/kg) and 1 day (100 mg/kg) prior to inoculation. Bloodstream infection was established by intravenous administration of a 50 µL bolus of early log-phase bacterial suspension (4 × 10^8 CFU/mL). Lipopeptide solutions were prepared at 1 mg/mL (free base) in sterile saline. At 2 h after inoculation, mice (n = 3) were injected intravenously with lipopeptide solution at 4 mg/kg (free base) or saline control. At 0 and 4 h after administration, blood was collected, diluted serially in sterile saline, and plated on nutrient agar plates. Agar plates were incubated at 37 °C overnight for bacterial colony counting and the bacterial load in the blood (log10 CFU/mL) in each mouse was calculated. In vivo efficacy was calculated as the difference of the log10 CFU/mL blood values between the treated mice and the saline-treated mice at 4 h post dosing (Δlog10 CFU/mL blood = log10 [treated] CFU/mL blood − log10[control] CFU/mL blood).

[2] = test system: Swiss mice, kidney; assay: Nephrotoxicity in mice (kidney histopathology); type: in vivo, mouse; settings: for Kidney histopathology (SQS Score): 72 mg/kg/d subcutaneously in six divided doses every 2 h, n = 3; for Kidney histopathology, mice with the SQS score: mouse, in vivo
Experimental: The experimental methodology has been previously reported by our group. Briefly, individual lipopeptide solutions were prepared in sterile saline (6 mg/mL). Swiss mice (female, 7-week-old, 22–28 g) were subcutaneously administered at 12 mg/kg in, 6 doses every 2 h to reach a total dose of 72 mg/kg (n = 3). For high-dose nephrotoxicity experiments, mice were intraperitoneally administered at 20 or 25 mg/kg, in 6 doses every 2 h to reach a total dose of 120 mg/kg (n = 6) or 150 mg/kg (n = 3). At 20 h after the last dose, the right kidney from each mouse was collected and placed in 10% buffered (pH 7.4) formalin (Sigma-Aldrich, Castle Hill, NSW, Australia). The kidneys were subjected to histological examination at the Australian Phenomics Network-Histopathology and Organ Pathology (University of Melbourne, Parkville, VIC, Australia), who was blind to the treatment groups.

[3] = test system: A. baumannii ATCC 19606; type: cell-based, Acinetobacter baumannii; settings: ATCC 19606
Experimental: (§1) MICs were determined in cation-adjusted Mueller–Hinton broth (CaMHB) by the broth micro-dilution method against ATCC strains and clinical isolates. MICs in the presence of Survanta® were determined as described above against P. aeruginosa ATCC 27853. In the 100 μL of fresh CaMHB containing polymyxins, 10% Survanta® (v/v, 2.5 mg/mL phospholipids) was added. MICs in the presence and absence of Survanta® were compared to determine the effect of binding to lung surfactant on the antibacterial activity of polymyxins.

[4] = test system: A. baumannii FADDI-AB030; type: cell-based, Acinetobacter baumannii; settings: FADDI-AB030
Experimental: as §1

[5] = test system: A. baumannii FADDI-AB034; type: cell-based, Acinetobacter baumannii; settings: FADDI-AB034
Experimental: as §1

[6] = test system: P. aeruginosa ATCC 27853; type: cell-based, Pseudomonas aeruginosa; settings: ATCC 27853
Experimental: as §1

[7] = test system: P. aeruginosa FADDI-PA025; type: cell-based, Pseudomonas aeruginosa; settings: FADDI-PA025
Experimental: as §1

[8] = test system: P. aeruginosa FADDI-PA038; type: cell-based, Pseudomonas aeruginosa; settings: FADDI-PA038
Experimental: as §1

[9] = test system: K. pneumoniae FADDI-KP032; type: cell-based, Klebsiella pneumoniae; settings: FADDI-KP032
Experimental: as §1

[10] = test system: K. pneumoniae FADDI-KP065; type: cell-based, Klebsiella pneumoniae; settings: FADDI-KP065
Experimental: as §1

Row | SMILES | Log10 CFU/mL blood at 4 h, Mean [1] | Δlog10 CFU/mL blood (mean) [1] | Log10 CFU/mL blood at 4 h, single mouse [1] | Delta Log10 CFU/mL blood at 4 h, single mouse [1] | Kidney histopathology (SQS Score) [2] | Kidney histopathology, mice with the SQS score [2] | MIC A. baumannii ATCC 19606 [3] | MIC A. baumannii FADDI-AB030 [4] | MIC A. baumannii FADDI-AB034 [5] | MIC P. aeruginosa ATCC 27853 [6] | MIC P. aeruginosa FADDI-PA025 [7] | MIC P. aeruginosa FADDI-PA038 [8] | MIC K. pneumoniae FADDI-KP032 [9] | MIC K. pneumoniae FADDI-KP065 [10] | MIC, No Survanta [6]
1 | CCCCCCCC(=O)N[C@@H](CCN)C(=O)N[C@H](C(=O)N[C@@H](CCCN)C(=O)N[C@H]1CCNC(=O)[C@H]([C@@H](C)O)NC(=O)[C@H](CCN)NC(=O)[C@H](CCN)NC(=O)[C@H]([C@@H](C)O)NC(=O)[C@@H](CC(C)C)NC(=O)[C@H](CCN)NC1=O)[C@@H](C)O [Lipopeptide F252] (HELM PEPTIDE1{[CCCCCCCC(=O)[*:2]].[Dab].T.[Orn].[Dab].[Dab].[dL].T.[Dab].[Dab].T}$PEPTIDE1,PEPTIDE1,5:R3-11:R2$$$V2.0) | 5.46 Log10 CFU/mL blood | −1.98 log10 CFU/mL blood | 5.30 Log10 CFU/mL blood and 5.91 Log10 CFU/mL blood and 5.19 Log10 CFU/mL blood | -2.15 Log10 CFU/mL blood and -1.54 Log10 CFU/mL blood and -2.26 Log10 CFU/mL blood | +1 (SQS + 1 = mild damage (overall score, 1 to <15)) | 2/3 | 1 µg/mL (≈ 0.864 µM) | 0.5 µg/mL (≈ 0.432 µM) | 1 µg/mL (≈ 0.864 µM) | 0.5 µg/mL (≈ 0.432 µM) | >32 µg/mL | 2 µg/mL (≈ 1.73 µM) | <0.125 µg/mL | 0.5 µg/mL (≈ 0.432 µM) | 
2 | CCCCCCCC(=O)N[C@@H](CCN)C(=O)N[C@H](C(=O)N[C@@H](CN)C(=O)N[C@H]1CCNC(=O)[C@H]([C@@H](C)O)NC(=O)[C@H](CCN)NC(=O)[C@H](CCN)NC(=O)[C@H](C)NC(=O)[C@@H](CC(C)C)NC(=O)[C@H](CCN)NC1=O)[C@@H](C)O [Lipopeptide F271] (HELM PEPTIDE1{[CCCCCCCC(=O)[*:2]].[Dab].T.[NC[C@H](N[*:1])C(=O)[*:2]].[Dab].[Dab].[dL].A.[Dab].[Dab].T}$PEPTIDE1,PEPTIDE1,5:R3-11:R2$$$V2.0) | 5.18 Log10 CFU/mL blood | −2.27 log10 CFU/mL blood | 5.01 Log10 CFU/mL blood and 5.37 Log10 CFU/mL blood and 5.15 Log10 CFU/mL blood | -2.43 Log10 CFU/mL blood and -2.08 Log10 CFU/mL blood and -2.30 Log10 CFU/mL blood | 0 (SQS 0 = no significant change (overall score, <1)) | 3/3 | 0.5 µg/mL (≈ 0.455 µM) | 0.25 µg/mL (≈ 0.227 µM) | 0.25 µg/mL (≈ 0.227 µM) | 0.5 µg/mL (≈ 0.455 µM) | 16 µg/mL (≈ 14.6 µM) | 1 µg/mL (≈ 0.91 µM) | <0.125 µg/mL | <0.125 µg/mL | 
3 | CCCCCCCC(=O)N[C@@H](CCN)C(=O)N[C@H](C(=O)N[C@H](CN)C(=O)N[C@H]1CCNC(=O)[C@H]([C@@H](C)O)NC(=O)[C@H](CCN)NC(=O)[C@H](CCN)NC(=O)[C@H]([C@@H](C)O)NC(=O)[C@@H](CC(C)C)NC(=O)[C@H](CCN)NC1=O)[C@@H](C)O [Lipopeptide F300] (HELM PEPTIDE1{[CCCCCCCC(=O)[*:2]].[Dab].T.[NC[C@@H](N[*:1])C(=O)[*:2]].[Dab].[Dab].[dL].T.[Dab].[Dab].T}$PEPTIDE1,PEPTIDE1,5:R3-11:R2$$$V2.0) | 5.31 Log10 CFU/mL blood | −1.53 log10 CFU/mL blood | 5.76 Log10 CFU/mL blood and 5.85 Log10 CFU/mL blood and 4.64 Log10 CFU/mL blood and 4.99 Log10 CFU/mL blood | -1.08 Log10 CFU/mL blood and -1.00 Log10 CFU/mL blood and -2.20 Log10 CFU/mL blood and -1.85 Log10 CFU/mL blood | +2 (SQS + 2 = mild to moderate damage (overall score, 15 to <30)) | 3/3 | 0.25 µg/mL (≈ 0.221 µM) | <0.125 µg/mL | <0.125 µg/mL | 0.25 µg/mL (≈ 0.221 µM) | 4 µg/mL (≈ 3.54 µM) | 1 µg/mL (≈ 0.885 µM) | <0.125 µg/mL | <0.125 µg/mL | 1 µg/mL (≈ 0.885 µM)
